This assay deals with releasing of lysosome from the neutrocytes of rat. Briefly: Inhibitory effect against the releasing of lysosome from the neutrocytes of rat. The assay is classed as cell-based. The conditions noted are these: 0.25 h; rat neutrocytes 5×10^5 cells/ml; FMLP 10^-6 M + cytochalasin B 5 μg/ml; 15 minutes; OD550; read-out: 50% inhibitory concentration (IC50), releasing of lysosome. Here is the method: Inhibitory effect against the releasing of lysosome from the neutrocytes of rat
The neutrocytes of rat were samples from the abdominal cavity of the reat 16 hours after the administration of 10 ml of 1%-casein solution (physiological saline solution).
Reaction of the releasing of lysosome from the neutrocytes of rat was determined by means of the method described in an article by T. Matsumoto, K. Takeshige and S. Minakami: Biochemical and Biophysical Research Communications, Vol. 88, No. 3, pp. 974-979, (1979).
The neutrocytes being sampled were added to Hank's soluiton so as to make the concentraiton thereof as 5×10^5 cells/ml, and the test compound of indole derivative of the present invention was added thereto to make the test group sample. On the other hand, water was added in place of the indole derivative of the present invention to make the control group sample. Each of the test group sample and the control group sample was subjected to pre-incubation at 37° C. for 1 minute.
As to the stimulating agents, 10^-6 M of FMLP (formylmethionyl leucyl phenylalanine) and 5 μg/ml of cytochalasin B were added to the solution. Thus, obtained mixture of the solution was reacted by incubating for 15 minutes. After the incubation, the mixture of the solution was subjected to centrifugation at 2,000 rpm for 10 minutes. The supernatant (0.2 ml) was admixed with 0.5 ml of 0.1M-acetic acid buffer solution (pH 4.5) in which 0.2 mM of phenolphthalein glucuronic acid was dissolved. Then the resulting mixture of the solutions was reacted at 37° C. for 5 hours by incubation. After the reaction, 1N-NaOH solution was added to the reaction mixture so as to make the pH thereof to pH 8-9, and the optical absorbance of both test group samples and control group samples were determined at 550 nm (OD550).
The 50% inhibitory concentration (IC50) values were obtained by calculating as the ratio of OD550 of the test group samples to that of the control group samples.
On to `COn1c(C)c(C)nc(Cc2c[nH]c3ccccc23)c1=O` [Compound A-53, 3-(Indol-3-yl)methyl-1-methoxy-5,6-dimethyl-1,2-dihydropyrazin-2-one], for which the IC50 came out at 43 µg/mL.
Turning to `COc1c(Cc2c[nH]c3ccccc23)n(C)c(=O)c(CC(C)C)[n+]1[O-]` [Compound A-59, 6-(indol-3-yl)methyl-3-isobutyl-5-methoxy-1-methyl-1,2-dihydropyrazin-2-one 4-oxide], the IC50 stood at 20 µg/mL.
The result for `COc1nc(Cc2c[nH]c3ccccc23)c(OC)[n+]([O-])c1CC(C)C` [Compound A-60, 3-(indol-3-yl)methyl-6-isobutyl-2,5-dimethoxypyrazine 1-oxide] reads 20 µg/mL; that for `CC(C)Cc1c(=O)[nH]c(Cc2c[nH]c3ccccc23)c[n+]1[O-]` [Compound A-84, 6-(indol-3-yl)methyl-3-isobutyl-1,2-dihydropyrazin-2-one 4-oxide], 50 µg/mL.
For `COc1c(Cc2c(-c3ccccc3)[nH]c3ccccc23)[nH]c(=O)c(CC(C)C)[n+]1[O-]` [Compound E-34g, 3-Isobutyl-5-methoxy-6-[(2-phenyl)indol-3-yl]methyl-1,2-dihydropyrazin-2-one 4-oxide] the value was 8 µg/mL.
For `COc1c(Cn2ccc3cc(C#N)ccc32)[nH]c(=O)c(CC(C)C)[n+]1[O-]` [Compound E-36o, 6-[(5-cyano)indol-1-yl]methyl-3-isobutyl-5-methoxy-1,2-dihydropyrazin-2-one4-oxide] the value was 12 µg/mL; for `COc1c(CC2C(=O)Nc3ccccc32)[nH]c(=O)c(CC(C)C)[n+]1[O-]` (centres unmarked) [Compound E-39, 2-Isobutyl-5-methxoy-6-(oxindol-3-yl)methyl-1,2-dihydropyrazin-2-one 4-oxide], 50 µg/mL; for `COc1c(Cc2c[nH]c3ccccc23)nc(OC(C)=O)c(CC(C)C)[n+]1[O-]` [Compound E-65, 3-Acetoxy-5-(indol-3-yl)methyl-2-isobutyl-6-methoxypyrazine 1-oxide], 9 µg/mL.

These data come from US5238938A, “Indole derivatives” (Otsuka Pharmaceutical Co., Ltd., priority 1989, dated 1993).
